Assay results reported in BindingDB's records for doi:10.1016/0960-894X(96)00063-7 (1996).

Molecular target: Squalene monooxygenase (Sus scrofa)
Test: Compound was evaluated for the inhibition of pig liver microsomal squalene epoxidase.

Structure (SMILES): CCN(C/C=C/C#CC(C)(C)C)Cc1cccc(NC[Si](C)(C)c2ccccc2C)c1 [(3-{[((E)-6,6-Dimethyl-hept-2-en-4-ynyl)-ethyl-amino]-methyl}-phenyl)-[(dimethyl-o-tolyl-silanyl)-methyl]-amine]
- IC50: 100 nM
